Legend:
Assay type in all cases: physicochemical
[1] = Solvent solubility of perfluoroalkanamides; set-up: key: S: complete dissolve in the solvent at room temperature; P: precipitation in the solvent; details: 3% w/w; for Solubility in Acetone: room temperature
Excerpt: It is clear from the observation that perfluoroalkanamides of the present invention can easily form micelles in acetone at room temperature. With shorter perfluoroalkyl group (i.e., C6F13—), perfluoroalkanamide can dissolve into all tested hydrocarbon solvents at room temperature, but precipitate in fluorocarbon (i.e., CF-76).

[2] = Solubility of C7F15-MPEG in PFC; details: decreases with increment of MW of MPEG
[3] = Ternary phase diagram / phase behavior of PFC/water/fluorosurfactant (PFC microemulsion formation)
Excerpt: The formation of PFC-in-water emulsion requires high energy to disperse PFC as surfactant-stabilized microdroplets in aqueous phase; while, for thermodynamic stable PFC microemulsion, two immiscible liquid phases with the aid of a pertinent fluorosurfactant can turn into an optically isotropic solution simply by gentle mixing. Given in FIG. 2, different phase behaviors were created by titering various concentrations of C7F15CONH-MPEG350 surfactant dissolved in water solution with different amounts of PFOB liquid. Since the specific density of PFOB is 1.94 which is larger than the water density, the milky PFOB-in-water emulsion settled down on the bottom of the vial (FIG. 2A). […]
Aqueous solutions containing given quantities of fluorosurfactant were progressively added with PFC and placed in a thermostat water bath set at 25° C. After each addition, the aspect of the solution was recorded, along with number, nature, and approximate volumes of phases. […] Ternary phase diagrams were then plotted to distinguish the boundaries between different phases and used to quantitate the proportion of three components (water, fluorosurfactant, and PFC) forming PFC microemulsion.
The ternary phase diagram given in FIG. 3 was determined by the weight fraction of water, PFOB, and RF-MPEG350. The PFOB microemulsion domain was determined to be the area under the test points symbolized as ▪. […]

Compound | Solubility in CF-76 (3 M) ([1]; @ RT) | Solubility in Ethanol ([1]; @ RT) | Solubility in Hexane ([1]; @ RT) | Solubility in Acetone [1] | Solubility in Hexane ([1]; > 30° C.) | Solubility in CF-76 (3 M) ([1]; > 40° C.) | Solubility in Ethanol ([1]; > 40° C.) | Solubility in PFOB or ZT85 (rank order) [2] | Size of PFC microemulsion domain in ternary phase diagram ([3]; PFOB and ZT85, 25° C.) | Formation of transparent PFC microemulsion ([3]; PFOB or ZT85 / water / fluorosurfactant, 25° C., no co-surfactant)
CCCCCCCCNC(=O)C(F)(F)C(F)(F)C(F)(F)C(F)(F)C(F)(F)C(F)(F)C(F)(F)C(F)(F)F [C8F17CONHC8H17] | S | S | S | S |  |  |  |  |  | 
CCCCCCCCCCCCNC(=O)C(F)(F)C(F)(F)C(F)(F)C(F)(F)C(F)(F)C(F)(F)C(F)(F)C(F)(F)F [C8F17CONHC12H25] | @ RT → P > | @ RT → P > | @ RT → P > | S | 30 °C → S | 40 °C → S | 40 °C → S |  |  | 
C7F15CONH-PEG550-OCH3 |  |  |  |  |  |  |  | C7F15-MPEG350>C7F15-MPEG550>C7F15-MPEG750 |  | 
C7F15CONH-PEG750-OCH3 |  |  |  |  |  |  |  | C7F15-MPEG350>C7F15-MPEG550>C7F15-MPEG750 |  | 
CCCCCCCCCCCCNC(=O)C(F)(F)C(F)(F)C(F)(F)C(F)(F)C(F)(F)C(F)(F)F [C6F13CONHC12H25] | @ RT → P > | S | S | S |  | 40 °C → S |  |  |  | 
C7F15CONH-PEG350-OCH3 |  |  |  |  |  |  |  | C7F15-MPEG350>C7F15-MPEG550>C7F15-MPEG750 | largest PFC microemulsion region | PFC-in-water microemulsion
CCCCCCCCCCCCNC(=O)C(F)(F)C(F)(F)C(F)(F)C(F)(F)C(F)(F)C(F)(F)C(F)(F)F [C7F15CONHC12H25] | @ RT → P > | @ RT → P > | @ RT → P > | S | 30 °C → S | 40 °C → S | 40 °C → S |  |  | 
